{
  "source": "paper PMC10610038",
  "about": "“New Insights into the Enhancement of Adventitious Root Formation Using N,N′-Bis(2,3-methylenedioxyphenyl)urea” (Plants, 2023)",
  "key": {"[1]": {"target": "T1, ZmCKX1 (cytokinin oxidase/dehydrogenase) (Zea mays, UniProt Q9T0N8)", "T1 construct": "gene CKX1", "T1 sequence (Q9T0N8 19-534)": "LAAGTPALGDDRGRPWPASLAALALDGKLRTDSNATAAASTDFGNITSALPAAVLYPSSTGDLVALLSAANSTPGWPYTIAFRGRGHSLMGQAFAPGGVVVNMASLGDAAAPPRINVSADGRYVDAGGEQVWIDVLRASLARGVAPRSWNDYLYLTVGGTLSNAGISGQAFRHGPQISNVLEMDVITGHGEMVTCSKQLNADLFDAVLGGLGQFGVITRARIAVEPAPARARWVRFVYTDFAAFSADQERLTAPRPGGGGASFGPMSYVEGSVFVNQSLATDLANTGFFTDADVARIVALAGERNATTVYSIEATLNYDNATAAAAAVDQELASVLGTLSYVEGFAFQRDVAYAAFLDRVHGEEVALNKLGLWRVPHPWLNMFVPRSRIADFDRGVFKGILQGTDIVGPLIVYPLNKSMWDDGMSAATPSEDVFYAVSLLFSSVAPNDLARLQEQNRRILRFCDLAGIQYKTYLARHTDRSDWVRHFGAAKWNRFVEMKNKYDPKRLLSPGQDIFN", "test": "DCPIP reduction assay with purified ZmCKX1, trans-zeatin substrate; Lineweaver-Burk; Ki from IC50 ([…]) by Cheng-Prusoff", "type": "biochemical"}, "[2]": {"target": "T1, ZmCKX1 (cytokinin oxidase/dehydrogenase)", "test": "DCPIP reduction assay with purified ZmCKX1, trans-zeatin substrate; Ki from IC50 ([…]) by Cheng-Prusoff", "type": "biochemical"}},
  "note": "pKi: −log10 of the molar value.",
  "data": [
    {"smiles": "O=C(Nc1cccc2c1OCO2)Nc1cccc2c1OCO2", "note": "[2,3-MDPU, N,N′-bis-(2,3-methylenedioxyphenyl)urea]", "values": [
      {"measurement": "pKi", "setting": "[1]", "value": 5.80}
    ]},
    {"smiles": "O=C(Nc1ccccc1)Nc1cnns1", "note": "[TDZ, N-phenyl-N′-(1,2,3-thiadiazol-5-yl)urea]", "values": [
      {"measurement": "pKi", "setting": "[2]", "value": 5.85}
    ]}
  ]
}
